{"source": "patent US6096725A", "about": "“Methods of using αGal oligosaccharides as immune system targeting agents” (Neose Technologies, Inc., priority 1997, dated 2000)", "key": {"[1]": {"tested_on": "pig kidney endothelial cell line, PK-15", "type": "cell-based", "conditions": "240 min", "experimental": "Sera were incubated with serial dilutions of αGal oligosaccharides at 37° C. for 1 hour, then added to αGal-expressing monolayers (pig kidney cells, PK-15) in Terasaki plates for 1 hour at 37° C. Cytotoxicity was mediated by either endogenous complement, or the sera were de-complemented (heat inactivated for 30 minutes at 56° C.) and exogenous (rabbit) complement was added. After washing away excess serum, the viable dye mix \"live-dead\" (calcein AM/ethidium homodimer (Molecular Probes Inc., Eugene Oreg.)) was added and monolayers were scored for viability by fluorescence microscopy.\nThe two xenotransplant baboons were outfitted with an indwelling catheter to the femoral vein to infuse compound and a catheter to the femoral artery for blood sampling. Following the transplant procedure, but just prior to providing circulatory access to the xenograft, the oligosaccharide was administered by i.v. pump through the catheter in a 15 min loading dose, followed by continuous 4 hour infusion to achieve 2.5 mM blood concentration (as determined by calculations presented in Table 2). […] Blood specimens collected for plasma were immediately centrifuged and the plasma withdrawn and stored frozen at -20° C. […] Arterial pressure was monitored in the recipient baboon by intermittent automatic cuff recordings."}, "[2]": {"tested_on": "hyperacute rejection (HAR) of porcine heart xenografted to the neck of a baboon", "type": "in vivo", "conditions": "for Onset of IgG, IgM and complement (C3) deposition at the endothelial surface: immunofluorescence", "from_the_text": "Primate model for testing and application of αGal oligosaccharides and dosages thereof. Due to the many similarities between human and baboon immune systems (Neubauer et al., 1981, J. Immunogenetics, 8:433-442; Garver et al., 1980, Cytogenetics & Cell Genetics, 27:238-245; Brodsky et al., 1982, Immunogenetics, 155:151-166; Hammer, C., in Hardy, M. A. (ed.), Xenograft 25, 115-123 (Elsevier, N.Y., 1989); Stark, J. H., et al., Transplantation, 30 52(6):1072-1078 (December 1991); Hammer, C., in Cooper, D. K. C., et al. (eds.), Xenotransplantation, 429-438 (Springer-Verlag 1991)), and because of the large size of baboons, these animals are convenient experimental model recipients of pig organs. These non-human primates also express anti-pig antibodies, and reject pig organs hyperacutely (Lexer et al., 1986, J. Heart Transplant, 4:411-418; Ye, Y., Cooper, D. K. C., in Cooper, D. K. C., et al. (eds.), Xenotransplantation,389-393 (Springer-Verlag 1991); Cooper et al., 1991, J. Heart Transplant, 7:238-246, 1988; Platt et al., 1991, Transplantation, 52(2):214-220). A normal porcine heart was transplanted into the neck of a normal baboon. αGal pentasaccharide was infused (i.v.) to establish and maintain blood oligosaccharide levels predicted to inhibit HAR until infusate was exhausted (See Table 2). The ability of i.v. infused αGal pentasaccharide to block hyperacute rejection (HAR) of porcine heart xenografted to the neck of a baboon was determined and blood levels of αGal oligosaccharide, anti-αGal antibodies, and serum or plasma cytotoxicity toward pig kidney and mouse endothelial cells was monitored and correlated with the onset of HAR.\nThe heart was excised from the pig donor and transplanted in the neck of the baboon recipient using techniques essentially as described by Cooper et al., 1993, Transplantation, 56:769-777.\nThe two xenotransplant baboons were outfitted with an indwelling catheter to the femoral vein to infuse compound and a catheter to the femoral artery for blood sampling. Following the transplant procedure, but just prior to providing circulatory access to the xenograft, the oligosaccharide was administered by i.v. pump through the catheter in a 15 min loading dose, followed by continuous 4 hour infusion to achieve 2.5 mM blood concentration (as determined by calculations presented in Table 2). […] Blood specimens collected for plasma were immediately centrifuged and the plasma withdrawn and stored frozen at -20° C. Blood specimens collected for serum were clotted at 4° C. overnight and the withdrawn serum frozen at -20° C. The αGal pentasaccharide was prepared according to the enzymatic methods set forth in example 6.2 and stored as a dry, white, solid powder. The oligosaccharide was dissolved in 250 mL sterile infusion grade saline to a concentration of 0.154 g/mL, or 177 mM. Induction anesthesia was with ketamine hydrochloride 5 mg/kg/body weight in and 0.5 mg/kg of xylazine iv. Intravenous fluid of approximately 20 ml/kg body weight was given during the course of the operative procedure through either a peripheral or central vein. Atropine 0.5 mg/kg was given iv. The larynx was sprayed with 2% lidocaine. Endotracheal intubation was carried out. The endotracheal tube was taped to the maxilla. The pig or baboon was ventilated with a Harvard positive pressure ventilator. Anesthesia was maintained with nitrous oxide 2 L/min and oxygen 1 L/min and 0.2%-1.2% halothane, at a respiratory rate of approximately 10 to 20 breaths per minute depending on the size of the animal. Tidal volume (approximately 20-24 ml/kg) was also adjusted to suit the size of the animal, and the ventilatory pressure was adjusted to approximately […]. Blood gases were checked, and ventilation adjusted as necessary. Arterial pressure was monitored in the recipient baboon by intermittent automatic cuff recordings. […]"}, "[3]": {"tested_on": "mouse endothelial cell line, MAE", "type": "cell-based", "conditions": "240 min"}}, "note": "Like-named read-outs stand apart in the source and are kept apart here."}
{"smiles": "CC(=O)N[C@H]1[C@H](O[C@H]2[C@@H](O)[C@@H](CO)O[C@@H](O[C@H]3[C@H](O)[C@@H](O)C(O)O[C@@H]3CO)[C@@H]2O)O[C@H](CO)[C@@H](O[C@@H]2O[C@H](CO)[C@H](O)[C@H](O[C@H]3O[C@H](CO)[C@H](O)[C@H](O)[C@H]3O)[C@H]2O)[C@@H]1O", "note": "(stereo partly drawn) [αGal pentasaccharide, Galα1-3Galβ1-4GlcNAcβ1-3Galβ1-4Glc]", "values": [{"measurement": "Reduction of cytotoxicity of baboon sera against PK-15", "setting": "[1]", "value": "85-95%"}, {"measurement": "Onset of IgG, IgM and complement (C3) deposition at the endothelial surface", "setting": "[2]; first baboon", "value": 1.5, "unit": "h"}, {"measurement": "Alteration in blood chemistry", "setting": "[2]; in vivo", "value": "increase in creatinine phosphokinase"}, {"measurement": "Hematology results", "setting": "[2]; in vivo", "value": "unremarkable"}, {"measurement": "Xenograft histology", "setting": "[2]; initial 3 hours of infusion, data not shown", "value": "Essentially normal histology"}, {"measurement": "Onset of IgG, IgM and complement (C3) deposition at the endothelial surface", "setting": "[2]; second baboon", "value": 3, "unit": "h"}, {"measurement": "Xenograft heart beat during infusion", "setting": "[2]; two baboons, four hour infusion, result in words", "value": "an even beat was maintained for the duration of the four hour oligosaccharide infusion"}, {"measurement": "Time of xenograft excision after cessation of the 4 hour infusion", "setting": "[2]; two baboons, untreated pig hearts rejected in 5-10 minutes", "value": "more than 1 hour"}, {"measurement": "Reduction of cytotoxicity of baboon sera against MAE cells", "setting": "[3]", "value": 100, "unit": "%"}]}
